Like-named read-outs stand apart in the source and are kept apart here. Values belong to the compound of their own block, whether it stands above or below them.
How the values were obtained:
mice [1] = assay: Nicotine self-administration assay (IV nicotine) in WT, Hcrt-R1 KO and virally-rescued mice; type: in vivo
Source text: Nicotine Self-Administration Assay
Development of Animal Subjects.
To generate Hcrt-R1^+/+ and […] mice, breeding pairs of male and female Hcrt-R1^+/− mice that were backcrossed >10 generations on a C57BL/6 background were obtained from Jackson Laboratory (Bar Harbor, Me.). For all experiments, mice weighing 25-35 g were housed in groups of 2-3 per cage, in a temperature-controlled vivarium under a reversed 12-h light/dark cycle (lights off at 8 am). Food and water were provided ad libitum until behavioral training commenced. During training, mice were food-restricted to maintain ˜85-90% of their free-feeding body weight. Behavioral testing occurred during the dark portion of the light/dark cycle between the hours of 9 am-1 pm, during the early portion of the dark phase of the cycle. All procedures were conducted in strict adherence with the National Institutes of Health Guide for the Care and Use of Laboratory Animals and were approved by the Institutional Animal Care and Use Committee of The Scripps Research Institute.
Mice were anesthetized by inhalation of 1-3% isoflurane in oxygen and silastic catheters were inserted into the jugular veins. […] During the TO period, responding on the lever was recorded but without scheduled consequence. […]

mice [2] = assay: Food self-administration (lever press for food pellets) in WT and Hcrt-R1 KO mice; type: in vivo; details: systemic administration 30 min prior to the session
CYP3A4 = biological target: T1, CYP3A4 (Homo sapiens, UniProt P08684); assay: Cytochrome P450 inhibition assay: midazolam hydroxylation to 1'-hydroxymidazolam in human liver microsomes, with or without 30 min pre-incubation; type: in vitro ADME; details: human, human liver microsomes, probe midazolam, 10 μM test compound; for inhibition at 5 min, 10 µM: read-out: CYP3A4 % inh (10 μM, 5 min); for inhibition at 30 min, 10 µM: 30 min (time-dependent inhibition), read-out: CYP3A4 % inh (10 μM, 30 min)
T1 construct: pre-incubated with human liver microsomes and NADPH for 30 minutes; from tissue; host or cells: human liver microsomes
Procedure: (§1) Cytochrome P450 Inhibition Assay.
(§2) Compounds were tested for the potential to induce drug-drug interactions by inhibition of the cytochrome P450 3A4 isoform. The assay evaluated the metabolism of a specific marker substrate (CYP3A4, midazolam hydroxylation to 1′-hydroxymidazolam) in the presence or absence of 10 μM test compound. […] A specific inhibitor for the isoform was included in each run to validate the system. An appropriate positive control inhibitor was used. Mechanism-based inhibition was investigated where warranted using a classical method. […] The percent inhibition of the pre-incubated and non-pre-incubated samples were compared as a preliminary evaluation of time-dependent inhibition.

[3] = biological target: T2, cytochrome P450 3A4 isoform (Homo sapiens, UniProt P08684); assay: as above; type: in vitro ADME; details: relative to Examples 112 and 114 (Table 4)
T2 construct: pre-incubated with human liver microsomes and NADPH for 30 minutes; from tissue; host or cells: human liver microsomes
Procedure: as §1, §2

OX1 = biological target: T3, OX1 (Homo sapiens, UniProt O43613); assay: Orexin receptor cell-based functional assay: [Ca2+]i by FLIPR in CHO-OX1 cells, antagonism of EC90 of OXA
T3 construct: expressed in transfected cells; host or cells: CHO (CHO-OX1, kept under G418 or Blasticidin selection)
T3 sequence (O43613 1-425): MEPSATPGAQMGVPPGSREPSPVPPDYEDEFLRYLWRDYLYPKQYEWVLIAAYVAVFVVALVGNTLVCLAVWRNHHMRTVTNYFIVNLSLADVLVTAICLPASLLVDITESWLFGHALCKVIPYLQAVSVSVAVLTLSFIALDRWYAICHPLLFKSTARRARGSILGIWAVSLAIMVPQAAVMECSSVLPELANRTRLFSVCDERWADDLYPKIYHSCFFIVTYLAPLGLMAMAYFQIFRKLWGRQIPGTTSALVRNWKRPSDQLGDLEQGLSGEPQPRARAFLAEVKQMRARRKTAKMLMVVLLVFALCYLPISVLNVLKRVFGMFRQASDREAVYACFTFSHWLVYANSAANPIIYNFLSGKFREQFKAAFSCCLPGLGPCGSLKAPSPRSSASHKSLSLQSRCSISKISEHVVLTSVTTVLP
Procedure: Orexin Receptor Cell-based Functional Assay.
Measurement of [Ca^2+]i using a FLIPR: CHO—OX1 or CHO—OX2 cells are seeded into black-walled clear-base 384-well plates (Costar) at a density of 20,000 cells per well in F12-K medium supplemented with 10% FBS and selection antibiotic (500 ug/ml G418 or 15 ug/ml Blasticidin) and cultured overnight. The cells are incubated with equal volume of calcium 4 loading buffer (Molecular Devices, Inc.) containing 2.5 mM probenecid at 37° C. for 30 min, followed by putative OX1 or OX2 receptor antagonists (dose-range 0.1 nM-10 μM) for another 30 min.

[4] = Table 2A, bioactivity with respect to OX1, CHO-OX1 cells, FLIPR, read-out: OX1

T1 sequence (P08684 whole entry): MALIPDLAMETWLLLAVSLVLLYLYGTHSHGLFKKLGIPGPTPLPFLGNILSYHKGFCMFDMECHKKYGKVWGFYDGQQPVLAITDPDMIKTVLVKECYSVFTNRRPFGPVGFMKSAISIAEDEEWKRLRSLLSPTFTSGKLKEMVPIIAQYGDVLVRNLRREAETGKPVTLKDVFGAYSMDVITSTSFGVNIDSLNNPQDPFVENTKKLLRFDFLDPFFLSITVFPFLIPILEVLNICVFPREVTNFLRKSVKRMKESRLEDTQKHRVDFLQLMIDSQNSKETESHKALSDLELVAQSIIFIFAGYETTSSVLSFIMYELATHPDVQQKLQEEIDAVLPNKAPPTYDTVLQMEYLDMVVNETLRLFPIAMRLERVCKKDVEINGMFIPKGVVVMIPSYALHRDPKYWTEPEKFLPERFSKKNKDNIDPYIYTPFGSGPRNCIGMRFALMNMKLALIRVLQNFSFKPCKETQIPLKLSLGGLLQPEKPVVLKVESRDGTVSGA
T2 sequence (P08684 whole entry, canonical isoform): as the sequence (P08684 whole entry) above

SMILES: CC1(C)OC[C@H](NC(=O)Nc2ccc(Br)cc2Br)[C@H](c2ccccc2)O1 [JNJ 10397049]
- nicotine self-administration (SA) (mice [1]; KO mice): marginal decrease in nicotine SA
- nicotine self-administration (SA) (mice [1]; doses 0, 5 and 10 mg/kg, WT mice): no effect on nicotine SA
- food self-administration (SA) (mice [2]): no effect on SA of food pellets

- inhibition at 5 min, 10 µM (CYP3A4): 78%
- inhibition at 30 min, 10 µM (CYP3A4): 93%
SMILES: Cc1ccc(-n2nccn2)c(C(=O)N2CCC[C@@H](C)[C@H]2CNc2ccc(C(F)(F)F)cn2)c1 (racemic) [Example 114, rac-((2S,3R)-3-methyl-2-(((5-(trifluoromethyl)pyridin-2-yl)amino)methyl)piperidin-1-yl)(5-methyl-2-(2H-1,2,3-triazol-2-yl)phenyl)methanone]

- inhibition of CYP3A4 [3]: reduced inhibition of CYP3A4
- inhibition at 30 min, 10 µM (CYP3A4): 52%
SMILES: C[C@@H]1CCCN(C(=O)c2cc(F)ccc2-n2nccn2)[C@@H]1CNc1ncc(C(F)(F)F)cn1 [Example A207, (5-Fluoro-2-(2H-1,2,3-triazol-2-yl)phenyl)((2S,3R)-3-methyl-2-(((5-(trifluoromethyl)pyrimidin-2-yl)amino)methyl)piperidin-1-yl)methanone]

- inhibition at 5 min, 10 µM (CYP3A4): 72%
- inhibition at 30 min, 10 µM (CYP3A4): 94%
- IC50 (OX1; Table 4, read-out: OX1 IC50): 42 nM
SMILES: Cc1ccc(-c2ncccn2)c(C(=O)N2CCC[C@@H](C)[C@H]2CNc2ccc(C(F)(F)F)cn2)c1 (racemic) [Example 112, rac-((2S,3R)-3-methyl-2-(((5-(trifluoromethyl)pyridin-2-yl)amino)methyl)piperidin-1-yl)(5-methyl-2-(pyrimidin-2-yl)phenyl)methanone]

- IC50 (OX1; Table 2, IC50 bioactivity, CHO-OX1 cells, FLIPR, read-out: OX1): 2000 nM
SMILES: CC(=O)NC1CCC(CNC(=O)c2cccc3cccnc23)N(C(=O)c2ccccc2-c2ccccc2)C1 (racemic) [Example 43, rac-N-((5-acetamido-1-(biphenylcarbonyl)piperidin-2-yl)methyl)quinoline-8-carboxamide]

- IC50 (OX1; Table 5, read-out: OX1 IC50): 137 nM
SMILES: Cc1nc(C(=O)N2CCCC(C)(C)C2CNc2ncc(C(F)(F)F)cn2)c(-c2ccc(F)cc2)s1 (centres unmarked) [SR-12364, reference compound]

- inhibition at 30 min, 10 µM (CYP3A4): 41%
SMILES: C[C@@H]1CCCN(C(=O)c2c(F)cccc2-n2nccn2)[C@@H]1CNc1ncc(C(F)(F)F)cn1 [Compound A259, (2-fluoro-6-(2H-1,2,3-triazol-2-yl)phenyl)((2S,3R)-3-methyl-2-(((5-(trifluoromethyl)pyrimidin-2-yl)amino)methyl)piperidin-1-yl)methanone]

- IC50 (OX1; [4]): 61 nM
SMILES: Cc1ccc(-n2nccn2)c(C(=O)N2CCC[C@@H](C)[C@H]2CNc2nnc(C(F)(F)F)s2)c1 [Example A102, ((2S,3R)-3-Methyl-2-(((5-(trifluoromethyl)-1,3,4-thiadiazol-2-yl)amino)methyl)piperidin-1-yl)(5-methyl-2-(2H-1,2,3-triazol-2-yl)phenyl)methanone]

- IC50 (OX1; Table 5, read-out: OX1 IC50): 13 nM
SMILES: Cc1nc(C(=O)N2CCCCC2CNc2ncc(C(F)(F)F)cn2)c(-c2ccc(F)cc2)s1 (centres unmarked) [SR-12376, reference compound]

SMILES: Cc1nc(C(=O)N2CCC[C@@H](C)[C@H]2CNc2ccc(C(F)(F)F)cn2)c(-c2ccc(F)cc2)s1 (racemic) [Example 11, rac-(5-(4-fluorophenyl)-2-methylthiazol-4-yl)((2S,3R)-3-methyl-2-(((5-(trifluoromethyl)pyridin-2-yl)amino)methyl)piperidin-1-yl)methanone]
- food self-administration (SA) (mice [2]): no effect on food SA

- inhibition of CYP3A4 [3]: reduced inhibition of CYP3A4
- inhibition at 30 min, 10 µM (CYP3A4): 59%
SMILES: C[C@@H]1CCCN(C(=O)c2cc(Cl)ccc2-c2ncccn2)[C@@H]1CNc1ncc(C(F)(F)F)cn1 [Example A201, (5-Chloro-2-(pyrimidin-2-yl)phenyl)((2S,3R)-3-methyl-2-(((5-(trifluoromethyl)pyrimidin-2-yl)amino)methyl)piperidin-1-yl)methanone]

- IC50 (OX1; [4]): 100 nM
SMILES: Cc1ccc(-n2nccn2)c(C(=O)N2CCC[C@@H](C)[C@H]2CNc2ncc(C#N)cc2F)n1 [Example A193, 5-Fluoro-6-((((2S,3R)-3-methyl-1-(6-methyl-3-(2H-1,2,3-triazol-2-yl)picolinoyl)piperidin-2-yl)methyl)amino)nicotinonitrile]

- inhibition at 30 min, 10 µM (CYP3A4): 58%
SMILES: C[C@@H]1CCCN(C(=O)c2cc(F)ccc2-c2ncccn2)[C@@H]1CNc1ncc(C(F)(F)F)cn1 [Compound A227, (5-Fluoro-2-(pyrimidin-2-yl)phenyl)((2S,3R)-3-methyl-2-(((5-(trifluoromethyl)pyrimidin-2-yl)amino)methyl)piperidin-1-yl)methanone]

From patent US9499517B2, “Substituted prolines / piperidines as orexin receptor antagonists” (Eolas Therapeutics, Inc., priority 2012, dated 2016)
